Data set [1] relates to HT-29 human colon cancer cells. As to the kind of experiment: HT-29 colon tumour xenograft in CD-1 nude mice. The data set is classed as in vivo. The protocol:
HT-29 human colon cancer cells (3×10^6 cells in 100 μl of PBS) were subcutaneously injected into the right flank of 6-7 weeks old female CD-1 nude mice. After the size of tumour reached an approximate volume of 50 mm^3, 4 days post tumour cell injection, mitomycin C was administered by bolus infusion into the tail vein at days 4, 11 and 18 with a dose of 3.5 mg/kg/week. Antitumour effect of mitomycin C was further compared to that of SEQ ID NO:1 in combination with mitomycin C. SEQ ID NO:1 was administered by bolus infusion into the tail vein every day at 6 mg/kg and mitomycin C was administered intravenously at days 4, 11 and 18 with a dose of 3.5 mg/kg/week, one hour after the treatments with SEQ ID NO:1. Control animals received saline alone for the same period as SEQ ID NO:1. All treatments were stopped at day 22. A day after the last treatment, tumours were excised from the animals and their weights were measured.
HT-29 human colon cancer cells (3×10^6 cells in 100 μl of PBS) were subcutaneously injected into the right flank of 5-6 week old female CD-1 nude mice. After the size of tumour reached an approximate volume of 100 mm^3, 7 days post tumour cell injection, SEQ ID NO:1 was administered by bolus infusion into the tail vein every other day at 10 mg/kg. Control animals received saline alone for the same period. Antitumour effect of SEQ ID NO:1 was further compared to that of CPT-11 alone or that of SEQ ID NO:1 in combination with CPT-11. CPT-11 was administered intraperitoneally for 5 days in a row from […] with a dose of 20 mg/kg in 100 μl saline. All treatments were stopped at day 32. A day after the last treatment, tumours were excised from the animals and their weights were measured.
HT-29 human colon cancer cells (3×10^6 cells in 100 μl of PBS) were subcutaneously injected into the right flank of 6-7 week old female CD-1 nude mice. Treatments started at day 5 post tumour cell injection, SEQ ID NO:1 and 5-FU were administered as outlined below: • Groups and treatment: • Group 1. Saline treated group: saline:0.1 ml/2 days, i.v.; • Group 2. SEQ ID NO:1 treated group: 10 mg/kg/2 days in 100 μL saline, i.v.; • Group 3. 5-FU treated group:13 mg/kg/5 days/week (one week on and one week off), i.v.; • Group 4. SEQ ID NO:1 plus 5-FU treated group.
HT-29 human colon cancer cells (3×10^6 cells in 100 μl of PBS) were subcutaneously injected into the right flank of 5-6 week old female CD-1 nude mice. Treatments started 4 days post tumour cell injection, SEQ ID NO: 1 and Capecitabine were administered as outlined below: • Group and Treatment: • Group 1: treated with 0.2 ml vehicle solution for capecitabine, o.p.; • Group 2: treated with 0.1 ml saline, i.v.; • Group 3: treated with 359 mg/kg/day×5/w Capecitabine in 0.2 ml vehicle solution, o.p.; • Group 4: treated with 10 mg/kg/2 days SEQ ID NO:1 in 0.1 ml saline i.v.; • Group 5: treated with 10 mg/kg/2 days SEQ ID NO:1 in 0.1 ml saline, i.v. plus 359 mg/kg/day×5/w capecitabine in 0.2 ml vehicle solution, o.p.

The test system of data set [2] is HCT116 colon cell carcinoma. As to the kind of experiment: Relative colony forming efficiency (Example 17, Table 13). The data set is classed as cell-based, human. The settings on record: averages of 2-8 determinations. The procedure, abridged: (§1)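 0.2 μM oligo (default) + 2.5 μg Lipofectin, 4 h exposure; methylene blue stain, colonies counted; vs lipofectin-alone control, reported as % inhibition.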

Data set [3] relates to HepG2 hepatocellular carcinoma. Described as above. In kind it is cell-based, human. The settings on record: averages of 2-8 determinations. The procedure, abridged:
as §1

For data set [4], the system named is PC-3 prostrate cell adenocarcinoma. Described as above. In kind it is cell-based, human. The conditions noted are these: averages of 2-8 determinations. The essentials: as §1
For a further data set, the system named is A549 lung cell carcinoma. Described as above. The data set is classed as cell-based, human. The settings on record: averages of 2-8 determinations. The procedure, abridged: as §1
In data set [5] the test system is T24 bladder cell carcinoma. The description is as above. The settings on record: averages of 2-8 determinations. The data set is classed as cell-based, human. The essentials:
as §1

In data set [6] the test system is MDA-MB-231 breast cell adenocarcinoma. The description is as above. In kind it is cell-based, human. The conditions noted are these: averages of 2-8 determinations. The procedure, abridged:
as §1

The subject of data set [7] is T-47D breast ductal carcinoma. The description is as above. The data set is classed as cell-based, human. The conditions noted are these: averages of 2-8 determinations. The essentials:
as §1

Data set [8] concerns MDA PaCa-2 pancreatic cell carcinoma. The description is as above. The data set is classed as cell-based, human. The settings on record: MIA PaCa-2 pancreatic cell carcinoma; averages of 2-8 determinations. The procedure, abridged: as §1
For data set [9], the system named is Human Ovary Adenocarcinoma. As to the kind of experiment: Tumour growth assay, human ovary adenocarcinoma in Balb/c Nu-Nu mice. In kind it is in vivo.
For data set [10], the system named is Caki-1 human renal cancer cells. As to the kind of experiment: Caki-1 renal tumour xenograft in SCID mice, SEQ ID NO:1 and chemotherapeutics. The data set is classed as in vivo. The protocol: Caki-1 human renal cancer cells (1×10^7 cells in […] of PBS) were subcutanteously injected into the right flank of 6-7 weeks old female SCID mice. After the size of tumour reached an approximate volume of 200 mm^3, 7 days post tumour cell injection, SEQ ID NO:1 was administered by bolus infusion into the tail vein every other day at 10 mg/kg. Control animals received saline alone for the same period. The antitumour effect of SEQ ID NO:1 was further compared to that of two chemotherapeutic agents: 5-FU and vinblastine. 5-FU was administered intraperitoneally at days 7-13, 21-27 and 35-36 with a dose of 13 mg/kg/day, while vinblastin was administered intraperitoneally at days 7, 14, 21, 28 and 35 at a dose of 0.6 mg/kg/week. Antitumour effects of each of these compounds were further compared to those of SEQ ID NO:1 in combination with 5-FU or with vinblastin. The two chemotherapeutic agents were applied as described above, one hour after the treatments with SEQ ID NO:1 when combination treatments occurred on the same day. All treatments were stopped at day 36. A day after the last treatment, tumours were excised from the animals and their weights were measured.

“Also recorded” adds a separate entry of the source.

Data on 1 sequence can be found in patent US20080311126A1, “Antisense Oligonucleotides Directed to Ribonucleotide Reducatase R2 and Uses Thereof in Combination Therapies for the Treatment of Cancer” (Genesense Technologies, Inc, priority 2004, published 2008).

As for “GGCTAAATCGCTCCACCAAG (chemistry not given here) [SEQ ID NO: 1, antisense oligonucleotide that hybridizes to the coding region of human ribonucleotide reductase R2 mRNA]”, the “antitumour effect (tumour weight)” value is listed as “significant delay of tumour growth; also recorded: superior to the inhibitory effects observed with CPT-11 alone” in data set [1] (Example 12.2, SEQ ID NO:1 10 mg/kg every other day i.v., CPT-11 20 mg/kg i.p. 5 days) and “significant delay of tumour growth; also recorded: superior to the inhibitory effects observed with each of two chemotherapeutic compounds” in data set [10] (SEQ ID NO:1 10 mg/kg every other day i.v., 5-FU 13 mg/kg/day i.p., vinblastin 0.6 mg/kg/week i.p.). Besides, the “Tumour weight as % of saline control” value in data set [1] (HT-29 (colon), Mouse CD-1, CPT-11 study) is 19%; in data set [10] (Caki (renal), Mouse CD-1), 3.3%. Moreover, the “Reduced relative colony forming efficiency, HCT116 (% inhibition of colony forming ability)” value in data set [2] amounted to 70.46%. For the same sequence, the “Reduced relative colony forming efficiency, HepG2 (% inhibition of colony forming ability)” value in data set [3] was determined as 75.89%. For the same sequence, the “Reduced relative colony forming efficiency, PC-3 (% inhibition of colony forming ability)” value in data set [4] turned out to be 83.23%. The “Reduced relative colony forming efficiency, A549 (% inhibition of colony forming ability)” value in the data set on A549 lung cell carcinoma stood at 95.14%. Further, the “Reduced relative colony forming efficiency, T24 (% inhibition of colony forming ability)” value in data set [5] came out at 76.79%. The “Reduced relative colony forming efficiency, MDA-MB-231 (% inhibition of colony forming ability)” value in [6] is on record as 90.21%. Besides, the “Reduced relative colony forming efficiency, T-47D (% inhibition of colony forming ability)” value in [7] amounted to 66.12%. Further, in data set [8], the “Reduced relative colony forming efficiency, MIA PaCa-2 (% inhibition of colony forming ability)” value came to 75.62%. The “Inhibition of tumour size” value in [9] (Balb/c Nu-Nu mice, Days 19 to 25 after tumour implantation) is “approximately 35% in Balb/c Nu-Nu”. Moreover, the “Inhibition of tumour weight” value in data set [9] (Human Ovary Adenocarcinoma) is given as “of approximately 50%”.
